# Data published in patent US20230382925A1, “MODULATORS OF CYSTIC FIBROSIS TRANSMEMBRANE CONDUCTANCE REGULATOR” (VERTEX PHARMACEUTICALS INCORPORATED, priority 2020, published 2023).
# Like-named read-outs stand apart in the source and are kept apart here.
# Target: CFTR (Homo sapiens, UniProt P13569)
# Assay: Membrane Potential Dye, Enteroid Assay B
# Type: cell-based
# Summary of the method: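 Activity given as % of a triple-combination reference (1 μM and 3 μM correctors, 300 nM acute potentiator). Enteroids were preincubated 18-24 h with compound; chloride efflux then measured 15 min by methyl oxonol fluorescence after forskolin/IBMX/Compound III stimulation in chloride-free buffer containing CaCCinh-A01 and Chicago Sky Blue.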
# [1] = Table 10, read-out: Ent. B EC50
# Chain of CFTR (P13569 with tags, fused parts or gaps DEL508-508): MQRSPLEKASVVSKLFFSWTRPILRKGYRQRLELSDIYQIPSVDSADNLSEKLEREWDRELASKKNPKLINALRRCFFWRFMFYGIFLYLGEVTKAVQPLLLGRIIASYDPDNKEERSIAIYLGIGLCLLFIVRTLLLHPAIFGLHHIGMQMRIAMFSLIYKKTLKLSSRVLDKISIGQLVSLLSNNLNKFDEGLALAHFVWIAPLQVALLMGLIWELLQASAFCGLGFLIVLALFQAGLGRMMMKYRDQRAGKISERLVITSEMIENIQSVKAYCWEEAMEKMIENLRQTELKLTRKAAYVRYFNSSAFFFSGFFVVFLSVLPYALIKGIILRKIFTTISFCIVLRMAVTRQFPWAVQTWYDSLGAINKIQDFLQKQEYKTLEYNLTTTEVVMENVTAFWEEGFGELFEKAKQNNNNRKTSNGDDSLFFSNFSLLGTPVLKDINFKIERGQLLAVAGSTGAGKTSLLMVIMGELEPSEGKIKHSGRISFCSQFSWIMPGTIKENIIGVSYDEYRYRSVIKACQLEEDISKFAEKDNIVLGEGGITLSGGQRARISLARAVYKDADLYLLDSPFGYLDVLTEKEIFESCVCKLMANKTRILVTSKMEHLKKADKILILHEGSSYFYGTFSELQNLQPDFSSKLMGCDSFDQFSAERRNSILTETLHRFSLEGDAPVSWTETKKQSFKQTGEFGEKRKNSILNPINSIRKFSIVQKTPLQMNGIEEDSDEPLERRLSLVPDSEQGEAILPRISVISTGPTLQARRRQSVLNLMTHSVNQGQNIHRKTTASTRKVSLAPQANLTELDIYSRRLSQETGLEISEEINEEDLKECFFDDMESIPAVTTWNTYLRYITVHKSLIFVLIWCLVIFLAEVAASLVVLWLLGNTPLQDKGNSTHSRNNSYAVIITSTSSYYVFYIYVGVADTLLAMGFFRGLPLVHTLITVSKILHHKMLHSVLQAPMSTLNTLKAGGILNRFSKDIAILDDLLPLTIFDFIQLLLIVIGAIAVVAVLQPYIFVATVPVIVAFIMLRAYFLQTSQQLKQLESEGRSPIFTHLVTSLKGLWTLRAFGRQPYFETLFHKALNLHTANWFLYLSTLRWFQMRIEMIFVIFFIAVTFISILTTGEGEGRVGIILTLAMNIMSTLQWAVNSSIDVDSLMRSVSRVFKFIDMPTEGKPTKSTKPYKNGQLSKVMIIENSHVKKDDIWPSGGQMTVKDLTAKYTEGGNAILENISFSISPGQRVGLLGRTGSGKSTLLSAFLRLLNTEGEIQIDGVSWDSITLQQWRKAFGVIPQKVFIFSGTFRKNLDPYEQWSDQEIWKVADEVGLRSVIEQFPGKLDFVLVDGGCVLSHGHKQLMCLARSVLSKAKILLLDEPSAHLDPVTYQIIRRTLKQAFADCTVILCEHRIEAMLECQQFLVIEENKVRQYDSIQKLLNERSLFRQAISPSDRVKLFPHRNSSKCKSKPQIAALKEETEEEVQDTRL
Structure (SMILES),Ent. B Max Activity (%) (Table 10),EC50 [1],also measured
"COC(=O)N[C@H]1C[C@@H](N2C(=O)c3cccc(c3)S(=O)(=O)Nc3nc(cc(-c4c(C)cccc4C)n3)OC[C@H]2CC(C)(C)C)C1 (single isomer, unassigned) [Compound 168]",,,"Ent. B Max Activity (%) (Table 9): +++ (+++ is >60%); EC50 (Table 9, read-out: Ent. B EC50): < 1 µM"
CC(C)C[C@@H]1COc2cc(C3CCCCC3(C)C)nc(n2)NS(=O)(=O)c2cccc(c2)C(=O)N1C1CC2(CCN(C)CC2)C1 (stereo partly drawn) [Compound 394],,,Ent. B Max Activity (%): +++ (+++ is >60%); EC50 (read-out: Ent. B EC50): 1 to 3 µM
"Cc1cccc(C)c1-c1cc2nc(n1)NS(=O)(=O)c1cccc(c1)C(=O)N(C1CS(=O)(=O)C1)[C@H](CC(C)C)CO2 [Compound 41, (11R)-6-(2,6-Dimethylphenyl)-12-(1,1-dioxothietan-3-yl)-11-isobutyl-2,2-dioxo-9-oxa-2λ^6-thia-3,5,12,19-tetrazatricyclo[12.3.1.14,8]nonadeca-1(18),4(19),5,7,14,16-hexaen-13-one]",+++ (+++ is >60%),< 1 µM,
CCC(=O)N1CCC2(CC1)CC(N1C(=O)c3cccc(c3)S(=O)(=O)Nc3nc(cc(-c4c(C)cccc4C)n3)OC[C@H]1CC(C)(C)C(F)(F)F)C2 [Compound 417],+++ (+++ is >60%),< 1 µM,
COC(=O)NC1CC(N2C(=O)c3cccc(c3)S(=O)(=O)Nc3nc(cc(-c4c(C)cccc4C)n3)OC[C@H]2CC(C)(C)C(F)(F)F)C1 (stereo partly drawn) [Compound 419],+++ (+++ is >60%),< 1 µM,
COC(=O)NCC1CC(N2C(=O)c3cccc(c3)S(=O)(=O)Nc3nc(cc(-c4c(C)cccc4C)n3)OC[C@H]2CC(C)C)C1 (stereo partly drawn) [Compound 263],,,"Ent. B Max Activity (%) (Table 9): +++ (+++ is >60%); EC50 (Table 9, read-out: Ent. B EC50): < 1 µM"
"COC1CN([C@H]2C[C@@H](N3C(=O)c4cccc(c4)S(=O)(=O)Nc4nc(cc(-c5c(C)cccc5C)n4)OC[C@H]3CC(C)C)C2)C1 [Compound 65, (11R)-6-(2,6-dimethylphenyl)-11-isobutyl-12-[3-(3-methoxyazetidin-1-yl)cyclobutyl]-2,2-dioxo-9-oxa-2λ^6-thia-3,5,12,19-tetrazatricyclo[12.3.1.14,8]nonadeca-1(18),4(19),5,7,14,16-hexaen-13-one]",,,"Ent. B Max Activity (%) (Table 9): +++ (+++ is >60%); EC50 (Table 9, read-out: Ent. B EC50): < 1 µM"
Cc1cccc(C)c1-c1cc2nc(n1)NS(=O)(=O)c1cccc(c1)C(=O)N([C@H]1C[C@@H](N(CCO)CCO)C1)[C@H](CC(C)(C)C)CO2 (stereo in doubt) [Compound 252],+ (+ is <300%),< 1 µM,
"COCCN(C)[C@H]1C[C@]2(C1)C[C@H](N1C(=O)c3cccc(c3)S(=O)(=O)Nc3nc(cc(-c4c(C)cccc4C)n3)OC[C@H]1CC1(C(F)(F)F)CC1)C2 (stereo partly drawn) [Compound 82, (R)-1^6-(2,6-Dimethylphenyl)-6-((2S,4s,6S)-6-((2-methoxyethyl)(methyl)amino)spiro[3.3]heptan-2-yl)-7-((1-(trifluoromethyl)cyclopropyl)methyl)-9-oxa-3-thia-2,6-diaza-1(2,4)-pyrimidina-4(1,3)-benzenacyclononaphan-5-one 3,3-dioxide]",,,"Ent. B Max Activity (%) (Table 9): +++ (+++ is >60%); EC50 (Table 9, read-out: Ent. B EC50): < 1 µM"
"Cc1cccc(C)c1-c1cc2nc(n1)NS(=O)(=O)c1cccc(c1)C(=O)N(C1CC3(C1)CN(C(=O)OC(C)C)C3)[C@H](CC(C)C)CO2 [Compound 102, Isopropyl 6-[(11R)-6-(2,6-dimethylphenyl)-11-isobutyl-2,2,13-trioxo-9-oxa-2λ^6-thia-3,5,12,19-tetrazatricyclo[12.3.1.14,8]nonadeca-1(18),4(19),5,7,14,16-hexaen-12-yl]-2-azaspiro[3.3]heptane-2-carboxylate]",,,Ent. B Max Activity (%): +++ (+++ is >60%); EC50 (read-out: Ent. B EC50): < 1 µM
"COCCN(C)[C@H]1C[C@@]2(C1)C[C@H](N1C(=O)c3cccc(c3)S(=O)(=O)Nc3nc(cc(-c4c(C)cccc4C)n3)OC[C@H]1CC1(C(F)(F)F)CC1)C2 (stereo partly drawn) [Compound 83, (R)-16-(2,6-Dimethylphenyl)-6-((2R,4r,6R)-6-((2-methoxyethyl)(methyl)amino)spiro[3.3]heptan-2-yl)-7-((1-(trifluoromethyl)cyclopropyl)methyl)-9-oxa-3-thia-2,6-diaza-1(2,4)-pyrimidina-4(1,3)-benzenacyclononaphan-5-one 3,3-dioxide]",,,"Ent. B Max Activity (%) (Table 9): +++ (+++ is >60%); EC50 (Table 9, read-out: Ent. B EC50): < 1 µM"
Cc1cccc(C)c1-c1cc2nc(n1)NS(=O)(=O)c1cccc(c1)C(=O)N([C@H]1C[C@@H](N3CCCCC3)C1)[C@H](CC(C)C)CO2 [Compound 388],,,"Ent. B Max Activity (%) (Table 9): +++ (+++ is >60%); EC50 (Table 9, read-out: Ent. B EC50): < 1 µM"
CC(=O)N1CCC2(CC1)CC(N1C(=O)c3cccc(c3)S(=O)(=O)Nc3nc(cc(-c4c(C)cccc4C)n3)OC[C@H]1CC(C)(C)C(F)(F)F)C2 [Compound 420],,,"Ent. B Max Activity (%) (Table 9): +++ (+++ is >60%); EC50 (Table 9, read-out: Ent. B EC50): < 1 µM"
"Cc1cccc(C)c1-c1cc2nc(n1)NS(=O)(=O)c1cccc(c1)C(=O)N(C1CC3(CCN(C(=O)OC(C)C)CC3)C1)C[C@@H](C)O2 [Compound 181, Isopropyl 2-[(10R)-6-(2,6-dimethylphenyl)-10-methyl-2,2,13-trioxo-9-oxa-2λ^6-thia-3,5,12,19-tetrazatricyclo[12.3.1.14,8]nonadeca-1(18),4(19),5,7,14,16-hexaen-12-yl]-7-azaspiro[3.5]nonane-7-carboxylate]",,,Ent. B Max Activity (%): +++ (+++ is >60%); EC50 (read-out: Ent. B EC50): < 1 µM
Cc1cccc(C)c1-c1cc2nc(n1)NS(=O)(=O)c1cccc(c1)C(=O)N(C1CC3(CCNC(=O)C3)C1)[C@H](CC(C)C)CO2 (stereo partly drawn) [Compound 200],++ (++ is 30-60%),< 1 µM,
"Cc1cccc(C)c1-c1cc2nc(n1)NS(=O)(=O)c1cccc(c1)C(=O)N(C1CC(NC(=O)OC(C)C)C1)[C@H](CC(C)(C)C(F)(F)F)CO2 (single isomer, unassigned) [Compound 192]",+++ (+++ is >60%),< 1 µM,
"COCCN1CCC2(CC1)CC(N1C(=O)c3cccc(c3)S(=O)(=O)Nc3nc(cc(-c4c(C)cccc4C)n3)OC[C@H]1CC1(C(F)(F)F)CC1)C2 [Compound 128, (11R)-6-(2,6-Dimethylphenyl)-12-[7-(2-methoxyethyl)-7-azaspiro[3.5]nonan-2-yl]-2,2-dioxo-11-[[1-(trifluoromethyl)cyclopropyl]methyl]-9-oxa-2λ^6-thia-3,5,12,19-tetrazatricyclo[12.3.1.14,8]nonadeca-1(18),4(19),5,7,14,16-hexaen-13-one]",,,Ent. B Max Activity (%): +++ (+++ is >60%); EC50 (read-out: Ent. B EC50): < 1 µM
"Cc1cccc(C)c1-c1cc2nc(n1)NS(=O)(=O)c1cccc(c1)C(=O)N(C1CC3(CCN(C4COC4)CC3)C1)[C@H](CC(C)C)CO2 [Compound 24, (11R)-6-(2,6-Dimethylphenyl)-11-isobutyl-12-[7-(oxetan-3-yl)-7-azaspiro[3.5]nonan-2-yl]-2,2-dioxo-9-oxa-2λ^6-thia-3,5,12,19-tetrazatricyclo[12.3.1.14,8]nonadeca-1(18),4(19),5,7,14,16-hexaen-13-one]",,,"Ent. B Max Activity (%) (Table 9): +++ (+++ is >60%); EC50 (Table 9, read-out: Ent. B EC50): < 1 µM"

# The next lines start with results.
Ent. B Max Activity (%) (Table 10),EC50 [1],Structure (SMILES),also measured
+++ (+++ is >60%),< 1 µM,CNC(=O)C1CC2(C1)CC(N1C(=O)c3cccc(c3)S(=O)(=O)Nc3nc(cc(-c4c(C)cccc4C)n3)OC[C@H]1CC(C)(C)C)C2 (stereo partly drawn) [Compound 234],
+++ (+++ is >60%),< 1 µM,Cc1cccc(C)c1-c1cc2nc(n1)NS(=O)(=O)c1cccc(c1)C(=O)N([C@H]1C[C@](C)(NC(=O)OC(C)C)C1)[C@H](CC(C)(C)C)CO2 (stereo in doubt) [Compound 245],
,< 1 µM,[H][C@]1(N2C(=O)c3cccc(c3)S(=O)(=O)Nc3nc(cc(-c4c(C)cccc4C)n3)OC[C@H]2CC(C)C)C[C@@]2(C[C@H](NC(=O)CC)C2)C1 (stereo partly drawn) [Compound 250],
++ (++ is 30-60%),< 1 µM,"COC(=O)N(C)C1CC2(C1)CC(N1C(=O)c3cccc(c3)S(=O)(=O)Nc3nc(cc(-c4c(C)cccc4C)n3)OC[C@H]1CC(C)(C)C)C2 (stereo partly drawn) [Compound 94, Methyl ((2R,4r,6R)-6-((R)-1^6-(2,6-dimethylphenyl)-7-neopentyl-3,3-dioxido-5-oxo-9-oxa-3-thia-2,6-diaza-1(2,4)-pyrimidina-4(1,3)-benzenacyclononaphane-6-yl)spiro[3.3]heptan-2-yl)(methyl)carbamate]",
+++ (+++ is >60%),< 1 µM,"[H][C@]1(N2C(=O)c3cccc(c3)S(=O)(=O)Nc3nc(cc(-c4c(C)cccc4C)n3)OC[C@H]2CC(C)C)C[C@@]2(C[C@H](NC(=O)OC(C)C)C2)C1 (single isomer, unassigned) [Compound 123]",
+++ (+++ is >60%),< 1 µM,"Cc1cccc(C)c1-c1cc2nc(n1)NS(=O)(=O)c1cccc(n1)C(=O)N(C1CC3(C1)CC(C(C)(C)O)C3)[C@H](CC(C)(C)C)CO2 (single isomer, unassigned) [Compound 161]",
+++ (+++ is >60%),< 1 µM,"COC(=O)NC1(C)CC2(CC(N3C(=O)c4cccc(c4)S(=O)(=O)Nc4nc(cc(-c5c(C)cccc5C)n4)OC[C@H]3CC(C)(C)C)C2)C1 (single isomer, unassigned) [Compound 95]",
++ (++ is 30-60%),< 1 µM,"Cc1cccc(C)c1-c1cc2nc(n1)NS(=O)(=O)c1cccc(c1)C(=O)N([C@H]1C[C@@](C)(OC(F)(F)F)C1)[C@H](CC(C)(C)C)CO2 (single isomer, unassigned) [Compound 156]",
+++ (+++ is >60%),< 1 µM,Cc1cccc(C)c1-c1cc2nc(n1)NS(=O)(=O)c1cccc(c1)C(=O)N(C1CC3(CC(=O)C3)C1)[C@H](CC(C)(C)C)CO2 [Compound 352],
+++ (+++ is >60%),< 1 µM,Cc1cccc(C)c1-c1cc2nc(n1)NS(=O)(=O)c1cccc(n1)C(=O)N(C1CC3(CC(C(=O)N(C)C)C3)C1)[C@H](CC(C)(C)C)CO2 (stereo partly drawn) [Compound 414],
+++ (+++ is >60%),< 1 µM,CCC(O)(CC)[C@H]1CC2(C[C@H](N3C(=O)c4cccc(c4)S(=O)(=O)Nc4nc(cc(-c5c(C)cccc5C)n4)OC[C@H]3CC(C)(C)C)C2)C1 (stereo partly drawn) [Compound 408],
